According to patent US9221795B2, “Phosphatidylinositol 3-kinase inhibitors” (Gilead Sciences, Inc., priority 2013, dated 2015):

How the values were obtained:
PI3Kδ = PI3Kδ (Homo sapiens (Human), UniProt O00329); assay: Enzymatic activity of PI3K isoforms, TR-FRET assay (PI3Kδ); format: biochemical; conditions: 2× Km ATP, geometric mean if more than one value
In short: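 Recombinant heterodimeric PI3Kβ or PI3Kδ (25-50 pM) was run with 2 μM PIP2 and 2× Km ATP (75-500 μM) at pH 7.4, for 30 min at 25° C. PIP3 formation was detected by TR-FRET displacement of labeled PIP3 from Eu-GRP-1. IC50 values in nM come from four-parameter fits, as geometric means.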

PI3Kβ = PI3Kβ (Homo sapiens (Human), UniProt P42338); assay: Enzymatic activity of PI3K isoforms, TR-FRET assay (PI3Kβ); format: biochemical; conditions: 2× Km ATP, geometric mean if more than one value
Experimental: Enzymatic activity of the class I PI3K isoforms in the presence of the compounds of Table 1 and Compounds X, Y and Z was measured using a time-resolved fluorescence resonance energy transfer (TR-FRET) assay. The TR-FRET assay was used to monitor formation of the product 3,4,5-inositol triphosphate molecule (PIP3) as it competed with fluorescently labeled PIP3 for binding to the GRP-1 pleckstrin homology domain protein. An increase in […] product results in a decrease in TR-FRET signal as the labeled fluorophore is displaced from the GRP-1 protein binding site.
Class I PI3K isoforms were expressed and purified as heterodimeric recombinant proteins. All assay reagents and buffers for the TR-FRET assay were purchased from Millipore. PI3K isoforms were assayed under initial rate conditions in the presence of 25 mM Hepes (pH 7.4), and 2× Km ATP (75-500 μM), 2 μM PIP2, 5% glycerol, 5 mM MgCl2, 50 mM NaCl, 0.05% (v/v) Chaps, 1 mM dithiothreitol, 1% (v/v) DMSO at the following concentrations for each isoforms: PI3Kα, PI3Kβ, and PI3Kδ between 25 and 50 pM, and PI3Kγ at 2 nM. After an assay reaction time of 30 minutes at 25° C., reactions were terminated with a final concentration of 10 mM EDTA, 10 nM labeled-PIP3, and 35 nM Europium labeled GRP-1 detector protein before reading TR-FRET on an Envision plate reader (Ex: 340 nm; Em: 615/665 nm; […] delay and 500 μs read window).
Data were normalized based on positive ([…] wortmanin) and negative (DMSO) controls. α, β, δ, and γ IC50 values were calculated from the fit of the dose-response curves to a four-parameter equation. All IC50 values represent geometric mean values if more than one value was obtained. IC50 values were reported in units of nM.

Sequence of PI3Kβ (P42338 whole entry, the tested form may be a part, canonical isoform): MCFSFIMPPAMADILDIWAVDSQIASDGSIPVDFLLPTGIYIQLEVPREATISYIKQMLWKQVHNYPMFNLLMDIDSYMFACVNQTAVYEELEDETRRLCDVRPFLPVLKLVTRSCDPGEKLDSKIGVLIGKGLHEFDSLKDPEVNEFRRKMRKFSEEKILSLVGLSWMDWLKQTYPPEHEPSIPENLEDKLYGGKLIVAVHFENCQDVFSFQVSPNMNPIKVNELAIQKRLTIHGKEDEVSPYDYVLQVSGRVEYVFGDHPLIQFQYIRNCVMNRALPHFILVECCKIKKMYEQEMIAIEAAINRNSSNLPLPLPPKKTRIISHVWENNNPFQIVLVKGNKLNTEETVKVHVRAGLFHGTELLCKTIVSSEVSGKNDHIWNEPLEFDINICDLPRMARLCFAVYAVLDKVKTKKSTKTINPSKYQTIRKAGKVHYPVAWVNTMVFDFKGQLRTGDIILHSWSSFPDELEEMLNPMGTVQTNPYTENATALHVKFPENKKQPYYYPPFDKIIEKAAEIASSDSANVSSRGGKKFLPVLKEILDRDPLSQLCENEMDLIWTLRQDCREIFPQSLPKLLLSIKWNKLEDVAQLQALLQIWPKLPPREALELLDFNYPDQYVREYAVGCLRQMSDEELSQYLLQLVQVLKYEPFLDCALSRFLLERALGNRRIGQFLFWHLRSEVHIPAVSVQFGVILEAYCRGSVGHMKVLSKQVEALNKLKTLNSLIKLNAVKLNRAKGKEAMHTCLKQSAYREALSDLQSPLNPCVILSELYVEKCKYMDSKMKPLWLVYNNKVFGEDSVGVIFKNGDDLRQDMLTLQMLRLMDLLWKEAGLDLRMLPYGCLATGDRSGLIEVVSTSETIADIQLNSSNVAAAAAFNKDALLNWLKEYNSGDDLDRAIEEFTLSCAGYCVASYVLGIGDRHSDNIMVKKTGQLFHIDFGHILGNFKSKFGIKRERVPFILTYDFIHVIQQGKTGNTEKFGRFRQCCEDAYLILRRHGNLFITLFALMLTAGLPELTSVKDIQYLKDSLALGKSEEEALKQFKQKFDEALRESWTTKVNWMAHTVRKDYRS
Sequence of PI3Kβ (P27986 whole entry partner, the tested form may be a part, canonical isoform): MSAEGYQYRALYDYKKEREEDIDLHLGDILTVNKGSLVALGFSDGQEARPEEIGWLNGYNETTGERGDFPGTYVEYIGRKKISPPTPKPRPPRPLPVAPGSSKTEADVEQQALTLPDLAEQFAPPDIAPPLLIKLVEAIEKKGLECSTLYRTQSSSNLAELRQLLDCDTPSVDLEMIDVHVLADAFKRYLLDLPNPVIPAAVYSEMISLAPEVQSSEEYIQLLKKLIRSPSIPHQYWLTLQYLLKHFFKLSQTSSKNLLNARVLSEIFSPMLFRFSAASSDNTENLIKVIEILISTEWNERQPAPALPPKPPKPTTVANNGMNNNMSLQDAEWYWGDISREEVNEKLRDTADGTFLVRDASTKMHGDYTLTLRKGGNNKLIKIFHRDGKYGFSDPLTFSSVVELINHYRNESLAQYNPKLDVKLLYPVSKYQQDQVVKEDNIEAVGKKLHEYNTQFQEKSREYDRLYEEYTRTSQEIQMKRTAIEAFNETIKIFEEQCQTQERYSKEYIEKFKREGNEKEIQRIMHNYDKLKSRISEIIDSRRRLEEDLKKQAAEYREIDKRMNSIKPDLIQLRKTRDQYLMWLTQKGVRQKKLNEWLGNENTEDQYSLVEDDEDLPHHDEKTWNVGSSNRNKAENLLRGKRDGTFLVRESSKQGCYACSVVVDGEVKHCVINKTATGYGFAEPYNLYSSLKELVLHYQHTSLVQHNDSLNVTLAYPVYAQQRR
Sequence of PI3Kδ (O00329 whole entry, canonical isoform): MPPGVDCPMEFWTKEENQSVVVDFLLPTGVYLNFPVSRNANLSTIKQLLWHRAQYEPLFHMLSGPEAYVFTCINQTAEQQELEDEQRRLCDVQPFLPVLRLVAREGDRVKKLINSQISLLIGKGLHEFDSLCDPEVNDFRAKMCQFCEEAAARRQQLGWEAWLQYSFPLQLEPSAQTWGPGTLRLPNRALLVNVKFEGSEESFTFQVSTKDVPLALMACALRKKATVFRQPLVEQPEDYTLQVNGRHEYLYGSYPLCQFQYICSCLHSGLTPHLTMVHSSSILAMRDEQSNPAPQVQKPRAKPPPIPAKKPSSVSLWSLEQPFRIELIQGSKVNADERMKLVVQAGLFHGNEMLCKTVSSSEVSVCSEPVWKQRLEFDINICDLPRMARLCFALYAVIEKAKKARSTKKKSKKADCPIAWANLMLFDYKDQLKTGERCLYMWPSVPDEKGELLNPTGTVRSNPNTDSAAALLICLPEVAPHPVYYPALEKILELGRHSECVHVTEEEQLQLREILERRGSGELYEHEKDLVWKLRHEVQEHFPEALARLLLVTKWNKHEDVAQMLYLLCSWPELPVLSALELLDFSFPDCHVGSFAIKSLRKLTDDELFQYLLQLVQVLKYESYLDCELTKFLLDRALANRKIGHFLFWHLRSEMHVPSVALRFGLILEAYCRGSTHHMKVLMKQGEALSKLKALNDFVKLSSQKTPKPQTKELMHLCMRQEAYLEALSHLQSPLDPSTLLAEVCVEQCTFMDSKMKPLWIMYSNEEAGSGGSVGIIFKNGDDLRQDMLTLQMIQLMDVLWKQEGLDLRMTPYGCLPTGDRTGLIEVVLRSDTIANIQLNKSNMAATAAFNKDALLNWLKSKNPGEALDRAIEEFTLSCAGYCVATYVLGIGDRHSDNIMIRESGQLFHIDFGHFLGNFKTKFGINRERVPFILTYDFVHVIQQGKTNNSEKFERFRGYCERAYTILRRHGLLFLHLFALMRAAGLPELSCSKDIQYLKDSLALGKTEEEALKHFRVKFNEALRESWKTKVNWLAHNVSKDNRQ
Sequence of PI3Kδ (P27986 whole entry partner, canonical isoform): as the sequence (P27986 whole entry partner, the tested form may be a part, canonical isoform) above

| SMILES | IC50 (PI3Kδ) [nM] | IC50 (PI3Kβ) [nM] |
| --- | --- | --- |
| C[C@H](Nc1ncnc(N)c1C#N)c1nc2cccc(Cl)c2c(=O)n1-c1cncc(N)c1 [Compound 109, (S)-4-amino-6-((1-(3-(5-aminopyridin-3-yl)-5-chloro-4-oxo-3,4-dihydroquinazolin-2-yl)ethyl)amino)pyrimidine-5-carbonitrile] | 2 | 460 |
| Cc1cc(N)ncc1-n1c([C@@H](Nc2nc(N)nc(N)c2C#N)C2CC2)nc2c(Cl)ccc(Cl)c2c1=O (atropisomer, axis not shown) [Compound 99, (S)-2,4-diamino-6-(((3-(6-amino-4-methylpyridin-3-yl)-5,8-dichloro-4-oxo-3,4-dihydroquinazolin-2-yl)(cyclopropyl)methyl)amino)pyrimidine-5-carbonitrile] | 640 | 3600 |
| CCC[C@H](Nc1nc(N)nc(N)c1C#N)c1nc2cccc(Cl)c2c(=O)n1-c1ccc(N)nc1 [Compound 103, (S)-2,4-diamino-6-((1-(3-(6-aminopyridin-3-yl)-5-chloro-4-oxo-3,4-dihydroquinazolin-2-yl)butyl)amino)pyrimidine-5-carbonitrile] | 1 | 3 |
| N#Cc1c(N)nc(N)nc1N[C@H](c1nc2c(F)ccc(Cl)c2c(=O)n1-c1ccc(N)nc1)C1CC1 [Compound 107, (S)-2,4-diamino-6-(((3-(6-aminopyridin-3-yl)-5-chloro-8-fluoro-4-oxo-3,4-dihydroquinazolin-2-yl)(cyclopropyl)methyl)amino)pyrimidine-5-carbonitrile] | 1 | 3 |
| CC[C@H](Nc1nc(N)nc(N)c1C#N)c1nc2cccc(Cl)c2c(=O)n1-c1cnc(N)cc1C (atropisomer, axis not shown) [Compound 91, (S)-2,4-diamino-6-((1-(3-(6-amino-4-methylpyridin-3-yl)-5-chloro-4-oxo-3,4-dihydroquinazolin-2-yl)propyl)amino)pyrimidine-5-carbonitrile] | 4 | 99 |
| N#Cc1c(N)nc(N)nc1N[C@H](c1nc2cccc(Cl)c2c(=O)n1-c1ccc(N)nc1)C1CC1 [Compound 90, (S)-2,4-diamino-6-(((3-(6-aminopyridin-3-yl)-5-chloro-4-oxo-3,4-dihydroquinazolin-2-yl)(cyclopropyl)methyl)amino)pyrimidine-5-carbonitrile] | 0.6 | 2 |
| C[C@H](Nc1nc(N)nc(N)c1C#N)c1nc2cccc(Cl)c2c(=O)n1-c1cncc(N)c1 [Compound 108, (S)-2,4-diamino-6-((1-(3-(5-aminopyridin-3-yl)-5-chloro-4-oxo-3,4-dihydroquinazolin-2-yl)ethyl)amino)pyrimidine-5-carbonitrile] | 0.6 | 33 |
| Cc1cc(N)ncc1-n1c([C@H](C)Nc2nc(N)nc(N)c2C#N)nc2cccc(Cl)c2c1=O (atropisomer, axis not shown) [Compound 93, (S)-2,4-diamino-6-((1-(3-(6-amino-4-methylpyridin-3-yl)-5-chloro-4-oxo-3,4-dihydroquinazolin-2-yl)ethyl)amino)pyrimidine-5-carbonitrile] | 2 | 30 |
| Cc1cc(N)ncc1-n1c([C@@H](Nc2nc(N)nc(N)c2C#N)C2CC2)nc2c(Cl)ccc(Cl)c2c1=O (atropisomer, axis not shown) [Compound 98, (S)-2,4-diamino-6-(((3-(6-amino-4-methylpyridin-3-yl)-5,8-dichloro-4-oxo-3,4-dihydroquinazolin-2-yl)(cyclopropyl)methyl)amino)pyrimidine-5-carbonitrile] | 21 | 160 |

Results, then the compound that gave them:

| IC50 (PI3Kδ) [nM] | IC50 (PI3Kβ) [nM] | SMILES |
| --- | --- | --- |
| 84 | 180 | C[C@H](Nc1nc(N)nc(N)c1Cl)c1nc2c(Cl)cc(F)cc2c(=O)n1-c1ccc(N)nc1 [Compound 81, (S)-3-(6-aminopyridin-3-yl)-8-chloro-2-(1-((2,6-diamino-5-chloropyrimidin-4-yl)amino)ethyl)-6-fluoroquinazolin-4(3H)-one] |
| 15 | 62 | CCC[C@H](Nc1nc(N)nc(N)c1Cl)c1nc2cccc(Cl)c2c(=O)n1-c1ccc(N)nc1 [Compound 102, (S)-3-(6-aminopyridin-3-yl)-5-chloro-2-(1-((2,6-diamino-5-chloropyrimidin-4-yl)amino)butyl)quinazolin-4(3H)-one] |
| 9 | 35 | CC[C@H](Nc1nc(N)nc(N)c1Cl)c1nc2cccc(Cl)c2c(=O)n1-c1ccc(N)nc1 [Compound 86, (S)-3-(6-aminopyridin-3-yl)-5-chloro-2-(1-((2,6-diamino-5-chloropyrimidin-4-yl)amino)propyl)quinazolin-4(3H)-one] |
| 31 | 180 | Nc1ccc(-n2c([C@@H](Nc3nc(N)nc(N)c3Cl)C3CC3)nc3c(F)ccc(Cl)c3c2=O)cn1 [Compound 106, (S)-3-(6-aminopyridin-3-yl)-5-chloro-2-(cyclopropyl((2,6-diamino-5-chloropyrimidin-4-yl)amino)methyl)-8-fluoroquinazolin-4(3H)-one] |
| 9 | 41 | CCC[C@H](Nc1nc(N)nc(N)c1C#N)c1nc2ccc(F)c(Cl)c2c(=O)n1-c1ccc(N)nc1 [Compound 105, (S)-2,4-diamino-6-((1-(3-(6-aminopyridin-3-yl)-5-chloro-6-fluoro-4-oxo-3,4-dihydroquinazolin-2-yl)butyl)amino)pyrimidine-5-carbonitrile] |
| 8 | 11 | C[C@H](Nc1nc(N)nc(N)c1C#N)c1nc2ccc(F)c(Cl)c2c(=O)n1-c1ccc(N)nc1 [Compound 101, (S)-2,4-diamino-6-((1-(3-(6-aminopyridin-3-yl)-5-chloro-6-fluoro-4-oxo-3,4-dihydroquinazolin-2-yl)ethyl)amino)pyrimidine-5-carbonitrile] |
| 12 | 42 | C[C@H](Nc1nc(N)nc(N)c1Cl)c1nc2c(Cl)ccc(Cl)c2c(=O)n1-c1ccc(N)nc1 [Compound 83, (S)-3-(6-aminopyridin-3-yl)-5,8-dichloro-2-(1-((2,6-diamino-5-chloropyrimidin-4-yl)amino)ethyl)quinazolin-4(3H)-one] |
| 94 | 530 | CCC[C@H](Nc1nc(N)nc(N)c1Cl)c1nc2ccc(F)c(Cl)c2c(=O)n1-c1ccc(N)nc1 [Compound 104, (S)-3-(6-aminopyridin-3-yl)-5-chloro-2-(1-((2,6-diamino-5-chloropyrimidin-4-yl)amino)butyl)-6-fluoroquinazolin-4(3H)-one] |
| 9 | 27 | Nc1ccc(-n2c([C@@H](Nc3nc(N)nc(N)c3Cl)C3CC3)nc3cccc(Cl)c3c2=O)cn1 [Compound 89, (S)-3-(6-aminopyridin-3-yl)-5-chloro-2-(cyclopropyl((2,6-diamino-5-chloropyrimidin-4-yl)amino)methyl)quinazolin-4(3H)-one] |
| 48 | 100 | C[C@H](Nc1nc(N)nc(N)c1Cl)c1nc2ccc(F)c(Cl)c2c(=O)n1-c1ccc(N)nc1 [Compound 100, (S)-3-(6-aminopyridin-3-yl)-5-chloro-2-(1-((2,6-diamino-5-chloropyrimidin-4-yl)amino)ethyl)-6-fluoroquinazolin-4(3H)-one] |
